{"source": "patent US10940144B2", "about": "“Drug containing pyridylaminoacetic acid compound” (priority 2017, dated 2021)", "key": {"[1]": {"tested_on": "retinal blood vessels", "assay": "Pharmacological Test 2: retinal vasodilatory action (retinal vascular diameter) after intravitreal administration of omidenepag isopropyl to rabbits", "type": "in vivo, rabbit", "settings": "for Base-Corrected Retinal Vascular Diameter Change Rate (%) 1 Hour After Administration / Base-Corrected Retinal Vascular Diameter Change Rate (%) 2 Hours After Administration / Base-Corrected Retinal Vascular Diameter Change Rate (%) 6 Hours After Administration / Base-Corrected Retinal Vascular Diameter Change Rate (%) 24 Hours After Administration / Base-Corrected Retinal Vascular Diameter Change Rate (%) 48 Hours After Administration: 20 μL intravitreal single injection, pigmented rabbits", "description": "(a) The fundus images captured immediately before the administration, 1 hour, 2 hours, 6 hours, and 24 hours after the administration were used to measure, as the vascular diameters, (i) the vascular diameter of the retinal artery on the nose side, (ii) the vascular diameter of the retinal artery on the ear side, and (iii) the optic nerve head diameter (longitudinal diameter passing through the center of the optic nerve head).\n(b) The average value of (i) the vascular diameter of the retinal artery on the nose side and (ii) the vascular diameter of the retinal artery on the ear side measured from the fundus images for each time period was divided by (iii) the optic nerve head diameter to calculate the corrected retinal vascular diameter. [Corrected Retinal Vascular Diameter]=(([(i) Vascular Diameter of Retinal Artery on Nose Side]+[(ii) Vascular Diameter of Retinal Artery on Ear Side])/2)/([(iii) Optic Nerve Head Diameter])\n(c) The ratio of the corrected retinal vascular diameter after passage of each of the time periods of 1 hour, 2 hours, 6 hours, and 24 hours after administration to the corrected retinal vascular diameter immediately before administration (retinal vascular diameter change rate (%)) was calculated. [Retinal Vascular Diameter Change Rate (%) After Passage of Each Time Period After Administration]=[Corrected Retinal Vascular Diameter After Passage of Each Time Period After Administration]/[Corrected Retinal Vascular Diameter Immediately Before Administration]×100\n(d) For each time period after administration, the difference (base-corrected retinal vascular diameter change rate (%)) was calculated between the retinal vascular diameter change rate (%) of the group administered with the base simultaneously carried out and the retinal vascular diameter change rate (%) of the groups administered with samples (omidenepag samples 1 and 2, and CP-544326 samples 1 and 2). [Base-Corrected Retinal Vascular Diameter Change Rate (%) After Passage of Each Time Period]=[Retinal Vascular Diameter Change Rate (%) After Passage of Each Time Period After Administration of Samples]−[Retinal Vascular Diameter Change Rate (%) After Passage of Each Time Period After Administration of Base]\n(e) The base-corrected retinal vascular diameter change rate (%) of (a) to (d) above was calculated for three experimental animals in each group, and the average thereof was defined as the value of the “base-corrected retinal vascular diameter change rate (%).”\nIn order to find anew medicinal use of omidenepag, an ester thereof, or a salt thereof, the retinal vasodilatory action in the case of administering omidenepag isopropyl to rabbits was examined.\nOmidenepag isopropyl at 3.98 mg was dissolved in dimethyl sulfoxide to a total volume of 118 μL. Of the total volume, 10 μL was added and dissolved into physiological saline, and an appropriate amount of sodium hydroxide solution was added to adjust the pH of the formulation to 6.4. Thereafter, physiological saline was further added to a total volume of 10 mL to obtain omidenepag isopropyl sample 1 (containing 0.00338% (w/v) (33.8 μg/mL) of omidenepag isopropyl). In addition, the base B was added to 0.1 mL of omidenepag isopropyl sample 1 to a total volume of 10 mL, and omidenepag isopropyl sample 2 was obtained (containing 0.0000338% (w/v) (0.338 μg/mL) of omidenepag isopropyl).\nIn the same method as that in Pharmacological Test 1, the base B and omidenepag isopropyl samples 1 and 2, each at 20 μL, were administered intravitreally (injection, single time) to examine the change in retinal vascular diameter. Note that, 1 hour, 2 hours, 6 hours, 24 hours, and 48 hours after administration of each test compound solution, fundus images of the retinal vascular diameter measuring eyes were captured, and the retinal vascular diameters and the like were measured from the obtained fundus images. […]"}, "[2]": {"tested_on": "optic nerve head tissue blood flow", "assay": "Pharmacological Test 4: optic nerve head tissue blood flow (laser speckle flowgraphy) after repeated instillation of omidenepag isopropyl to rabbits", "type": "in vivo, rabbit", "settings": "for Base-Corrected Optic Nerve Head Tissue Blood Flow Change Rate (%): 0.002% (w/v) (20 μg/mL), 50 μL instilled once a day for 14 days, rabbit, average of four animals", "description": "In order to find a new medicinal use of omidenepag, an ester thereof, or a salt thereof, the action of increasing tissue blood flow in the optic nerve head in the case of instilling omidenepag isopropyl to rabbits was examined.\nOmidenepag isopropyl, polyoxyl 35 castor oil, glycerin, sodium citrate, sodium edentate, and benzalkonium chloride were added and dissolved into purified water to adjust the pH. Thereafter, purified water was added to adjust the total volume, thereby preparing a 0.002 w/v % omidenepag isopropyl solution (omidenepag isopropyl sample 3).\nThe base D and omidenepag isopropyl sample 3 as test compound solutions, each at 50 μL, were instilled (ophthalmic solution, once a day, repeated instillation for 14 days) to examine the change in optic nerve head tissue blood flow. In addition, pigmented rabbits (strain: Dutch, sex: male, four animals per group) were used as experimental animals.\n1) After holding the above experimental animals, one drop (about 0.03 mL) of a 0.4% tropicamide ophthalmic solution (trade name: Mydrin-M ophthalmic solution 0.4%) was instilled into the optic nerve head tissue blood flow measurement eye to fully dilate the pupil. Thereafter, laser speckle flowgraphy (LSFG-NAVI manufactured by Softcare Co., Ltd.) was used to measure the tissue blood flow in the optic nerve head of the measurement eye.\n2) The test compound solutions were instilled at 50 μL into one eye (optic nerve head tissue blood flow measurement eye) of each of the experimental animals once a day for 14 days (the contralateral eye was untreated).\n3) At 1 hour and 2 hours after administration of each test compound solution at day 1, day 7, and day 14 after administration of each test compound solution, the optic nerve head tissue blood flow of the optic nerve head tissue blood flow measurement eye was measured.\n(a) The ratio of the optic nerve head tissue blood flow after passage of each of the time periods of 1 hour and 2 hours after administration of each test compound solution at day 1, day 7, and day 14 after the start of administration of each test compound solution to the optic nerve head tissue blood flow immediately before administration (optic nerve head tissue blood flow change rate (%)) was calculated. [Optic Nerve Head Tissue Blood Flow Change Rate (%) After Passage of Each Time Period After Administration]=[Optic Nerve Head Tissue Blood Flow After Passage of Each Time Period After Administration]/[Optic Nerve Head Tissue Blood Flow Immediately Before Administration]×100\n(b) For each time period after administration, the difference (base-corrected optic nerve head tissue blood flow change rate (%)) was calculated between the optic nerve head tissue blood flow change rate (%) of the group administered with the base D simultaneously carried out and the optic nerve head tissue blood flow change rate (%) of the group administered with omidenepag isopropyl sample 3. [Base-Corrected Optic Nerve Head Tissue Blood Flow Change Rate (%) After Passage of Each Time Period]=[Optic Nerve Head Tissue Blood Flow Change Rate (%) After Passage of Each Time Period After Administration of Omidenepag Isopropyl Sample 3]−[Optic Nerve Head Tissue Blood Flow Change Rate (%) After Passage of Each Time Period After Administration of Base D]\n(c) The base-corrected optic nerve head tissue blood flow change rate (%) of (a) and (b) above was calculated for four experimental animals in each group, and the average thereof was defined as the value of the “base-corrected optic nerve head tissue blood flow change rate (%).”"}}}
{"smiles": "CC(C)OC(=O)CNc1cccc(CN(Cc2ccc(-n3cccn3)cc2)S(=O)(=O)c2cccnc2)n1", "note": "[Omidenepag Isopropyl, isopropyl (6-{[4-(pyrazol-1-yl)benzyl](pyridin-3-ylsulfonyl)aminomethyl}pyridin-2-ylamino)acetate]", "values": [{"measurement": "Base-Corrected Retinal Vascular Diameter Change Rate (%) 1 Hour After Administration", "setting": "[1]; 0.0000338% (w/v) (0.338 μg/mL)", "value": 25.1, "unit": "%"}, {"measurement": "Base-Corrected Retinal Vascular Diameter Change Rate (%) 2 Hours After Administration", "setting": "[1]; 0.0000338% (w/v) (0.338 μg/mL)", "value": 34.5, "unit": "%"}, {"measurement": "Base-Corrected Retinal Vascular Diameter Change Rate (%) 6 Hours After Administration", "setting": "[1]; 0.0000338% (w/v) (0.338 μg/mL)", "value": 18.4, "unit": "%"}, {"measurement": "Base-Corrected Retinal Vascular Diameter Change Rate (%) 24 Hours After Administration", "setting": "[1]; 0.0000338% (w/v) (0.338 μg/mL)", "value": 6.8, "unit": "%"}, {"measurement": "Base-Corrected Retinal Vascular Diameter Change Rate (%) 48 Hours After Administration", "setting": "[1]; 0.0000338% (w/v) (0.338 μg/mL)", "value": 1.7, "unit": "%"}, {"measurement": "Base-Corrected Retinal Vascular Diameter Change Rate (%) 1 Hour After Administration", "setting": "[1]; 0.00338% (w/v) (33.8 μg/mL)", "value": 58.4, "unit": "%"}, {"measurement": "Base-Corrected Retinal Vascular Diameter Change Rate (%) 2 Hours After Administration", "setting": "[1]; 0.00338% (w/v) (33.8 μg/mL)", "value": 81.7, "unit": "%"}, {"measurement": "Base-Corrected Retinal Vascular Diameter Change Rate (%) 6 Hours After Administration", "setting": "[1]; 0.00338% (w/v) (33.8 μg/mL)", "value": 73.8, "unit": "%"}, {"measurement": "Base-Corrected Retinal Vascular Diameter Change Rate (%) 24 Hours After Administration", "setting": "[1]; 0.00338% (w/v) (33.8 μg/mL)", "value": 16.0, "unit": "%"}, {"measurement": "Base-Corrected Retinal Vascular Diameter Change Rate (%) 48 Hours After Administration", "setting": "[1]; 0.00338% (w/v) (33.8 μg/mL)", "value": 0.0, "unit": "%"}, {"measurement": "durability of retinal vasodilatory action compared with omidenepag (in words)", "setting": "[1]; both 65.0 μM, 24 hours after intravitreal administration, rabbits", "value": "amore durable action than omidenepag"}, {"measurement": "retinal vasodilatory action (in words)", "setting": "[1]; intravitreal, rabbits", "value": "significantly strong retinal vasodilatory action"}, {"measurement": "blood flow increasing action, optic nerve head (in words)", "setting": "[2]; 0.002 w/v % solution, 50 μL instillation once a day for 14 days, rabbits", "value": "good blood flow increasing action"}, {"measurement": "Base-Corrected Optic Nerve Head Tissue Blood Flow Change Rate (%)", "setting": "[2]; Day 1, 1 hour after administration", "value": 7.2, "unit": "%"}, {"measurement": "Base-Corrected Optic Nerve Head Tissue Blood Flow Change Rate (%)", "setting": "[2]; Day 1, 2 hours after administration", "value": 6.3, "unit": "%"}, {"measurement": "Base-Corrected Optic Nerve Head Tissue Blood Flow Change Rate (%)", "setting": "[2]; Day 7, 1 hour after administration", "value": 9.9, "unit": "%"}, {"measurement": "Base-Corrected Optic Nerve Head Tissue Blood Flow Change Rate (%)", "setting": "[2]; Day 7, 2 hours after administration", "value": 12.4, "unit": "%"}, {"measurement": "Base-Corrected Optic Nerve Head Tissue Blood Flow Change Rate (%)", "setting": "[2]; Day 14, 1 hour after administration", "value": 13.6, "unit": "%"}, {"measurement": "Base-Corrected Optic Nerve Head Tissue Blood Flow Change Rate (%)", "setting": "[2]; Day 14, 2 hours after administration", "value": 11.5, "unit": "%"}]}
